Assay results reported in US10472341B2, “Bicyclic tetrahydrothiazepine derivatives useful for the treatment of neoplastic and/or infectious diseases” (APEIRON BIOLOGICS AG, priority 2015, dated 2019).
Where a name gives a salt, the structure may show the parent alone.

Key:
human CD19+ B-cells = assay: Cytokine production in IgM-stimulated isolated human CD19+ B-cells; type: cell-based; conditions: for EC50: Homo sapiens, B-cell
Method: Buffy coats were obtained from a local hospital, diluted 3 fold with PBS and layered onto an isotonic Ficoll separating solution d=1.077 g/mL in 50 mL centrifuge tubes. The tubes were centrifuged at 914 g for 25 min at room temperature with the brakes off. The PBMC layer was removed and washed twice with ice-cold PBS. Erythrocytes were lysed by addition of ddH2O and cells were resuspended in X-Vivo15 (Lonza). CD19+ B cells were isolated from PBMCs by negative selection with the aid MACs kits (Miltenyi), according to manufacturer's instructions. Purified fractions were >95% CD19-positive as judged by antibody staining and assessment by cytometry. B-cells were stimulated by adding varying concentrations of human IgM (1.25-20 μg/mL goat F (ab′) 2 anti human IgM-LE/AF, Biozol) in the presence of example 1. Cells were incubated for 18 h at 37° C., 5% CO2. Assay plates were centrifuged at 400 g for 5 min and supernatants harvested. Cytokine concentration in tissue culture supernatants were determined with MSD or HTRF kits (MSD and Cisbio), according to manufacturer's instructions.

[1] = test system: CD8-positive immune cells & M21 melanoma cells; assay: CD8-positive immune cells alone or in co-culture with M21 melanoma cells: IFN-gamma, IL-2, granzyme; type: cell-based, human
Method: Isolated PBMCs, NK cells or CD8 positive cells were plated in Xvivo medium at 1.5*10^5 cells per in 96 well culture plates in the presence of 0.3*10^4 tumor cells where indicated. Cytokine secretion was determined by ELISA, immune cell activation (using Beckman-Coulter Abs CD25-PC5, CD69-PC7), cell viability and numbers by flow cytometry (Beckman-Coulter FC500 or Gallios) using 7-AAD exclusion as criterion for living cells. CD8-positive immune cells were isolated from PBMCs and were incubated with and without compound example 67, either alone or in co-culture with M21 melanoma cells.

[2] = 0.03 μM, CD8 only (no tumor cells)
[3] = 0.10 μM, CD8 only (no tumor cells)
[4] = 0.30 μM, CD8 only (no tumor cells)
[5] = 1 μM, CD8 only (no tumor cells)
[6] = 3 μM, CD8 only (no tumor cells)
[7] = 10 μM, CD8 only (no tumor cells)

SMILES: N[C@H]1CS(=O)(=O)c2cc(F)c(C(=O)NC3CC3(F)F)cc2N(Cc2ccc(Cl)cc2)C1=O (stereo partly drawn) [Example 1, (3R)-3-amino-5-[(4-chlorophenyl)methyl]-N-(2,2-difluorocyclopropyl)-8-fluoro-1,1,4-trioxo-2,3,4,5-tetrahydro-1λ^6,5-benzothiazepine-7-carboxamide hydrochloride]
- EC50 (human CD19+ B-cells; IL-6, IgM 1.25 μg/mL): 2.45 µM
- EC50 (human CD19+ B-cells; IL-6, IgM 5 μg/mL): 4.68 µM
- EC50 (human CD19+ B-cells; IL-6, IgM 20 μg/mL): 3.24 µM
- EC50 (human CD19+ B-cells; TNF-α, IgM 1.25 μg/mL): 3.31 µM
- EC50 (human CD19+ B-cells; TNF-α, IgM 5 μg/mL): 4.47 µM
- EC50 (human CD19+ B-cells; TNF-α, IgM 20 μg/mL): 2.95 µM
- Fold Diff Mean (human CD19+ B-cells; IL-6, IgM 1.25 μg/mL): 1.61
- Fold Diff Mean (human CD19+ B-cells; IL-6, IgM 5 μg/mL): 1.92
- Fold Diff Mean (human CD19+ B-cells; IL-6, IgM 20 μg/mL): 1.92
- Fold Diff Mean (human CD19+ B-cells; TNF-α, IgM 1.25 μg/mL): 1.64
- Fold Diff Mean (human CD19+ B-cells; TNF-α, IgM 5 μg/mL): 2.08
- Fold Diff Mean (human CD19+ B-cells; TNF-α, IgM 20 μg/mL): 1.87

SMILES: CCCCNC(=O)c1ccc2c(c1)N(Cc1ccc(OC(F)(F)F)cc1)C(=O)[C@@H](N)CS2(=O)=O.Cl [Example 67, (3R)-3-amino-N-butyl-1,1,4-trioxo-5-{[4-(trifluoromethoxy)phenyl]methyl}-2,3,4,5-tetrahydro-1λ^6,5-benzothiazepine-7-carboxamide hydrochloride]
- Granzyme [ng/ml] avg ([1]; 0.03 μM, CD8 cells & M21): 0.10 ng/mL
- IFN-gamma [ng/ml] avg ([1]; 0.03 μM, CD8 cells & M21): 0.06 ng/mL
- IL-2 [ng/ml] avg ([1]; 0.03 μM, CD8 cells & M21): 1.32 ng/mL
- Granzyme [ng/ml] avg [1, 2]: 0.01 ng/mL
- IFN-gamma [ng/ml] avg [1, 2]: Below
- IL-2 [ng/ml] avg [1, 2]: Below
- Granzyme [ng/ml] avg ([1]; 0.10 μM, CD8 cells & M21): 0.12 ng/mL
- IFN-gamma [ng/ml] avg ([1]; 0.10 μM, CD8 cells & M21): 0.15 ng/mL
- IL-2 [ng/ml] avg ([1]; 0.10 μM, CD8 cells & M21): 2.13 ng/mL
- Granzyme [ng/ml] avg [1, 3]: 0.01 ng/mL
- IFN-gamma [ng/ml] avg [1, 3]: Below
- IL-2 [ng/ml] avg [1, 3]: Below
- Granzyme [ng/ml] avg ([1]; 0.30 μM, CD8 cells & M21): 0.18 ng/mL
- IFN-gamma [ng/ml] avg ([1]; 0.30 μM, CD8 cells & M21): 0.20 ng/mL
- IL-2 [ng/ml] avg ([1]; 0.30 μM, CD8 cells & M21): 2.75 ng/mL
- Granzyme [ng/ml] avg [1, 4]: 0.01 ng/mL
- IFN-gamma [ng/ml] avg [1, 4]: Below
- IL-2 [ng/ml] avg [1, 4]: Below
- Granzyme [ng/ml] avg ([1]; 1 μM, CD8 cells & M21): 0.34 ng/mL
- IFN-gamma [ng/ml] avg ([1]; 1 μM, CD8 cells & M21): 0.40 ng/mL
- IL-2 [ng/ml] avg ([1]; 1 μM, CD8 cells & M21): 3.38 ng/mL
- Granzyme [ng/ml] avg [1, 5]: 0.02 ng/mL
- IFN-gamma [ng/ml] avg [1, 5]: Below
- IL-2 [ng/ml] avg [1, 5]: Below
- Granzyme [ng/ml] avg ([1]; 3 μM, CD8 cells & M21): 0.43 ng/mL
- IFN-gamma [ng/ml] avg ([1]; 3 μM, CD8 cells & M21): 0.54 ng/mL
- IL-2 [ng/ml] avg ([1]; 3 μM, CD8 cells & M21): 3.44 ng/mL
- Granzyme [ng/ml] avg [1, 6]: 0.01 ng/mL
- IFN-gamma [ng/ml] avg [1, 6]: Below
- IL-2 [ng/ml] avg [1, 6]: Below
- Granzyme [ng/ml] avg ([1]; 10 μM, CD8 cells & M21): 0.37 ng/mL
- IFN-gamma [ng/ml] avg ([1]; 10 μM, CD8 cells & M21): 0.68 ng/mL
- IL-2 [ng/ml] avg ([1]; 10 μM, CD8 cells & M21): 3.26 ng/mL
- Granzyme [ng/ml] avg [1, 7]: 0.02 ng/mL
- IFN-gamma [ng/ml] avg [1, 7]: Below
- IL-2 [ng/ml] avg [1, 7]: Below
- tumor-cell contact mediated release of granzyme ([1]; CD8-positive immune cells in co-culture with M21): enhanced
- production of IL-2 and IFN-gamma ([1]; CD8-positive immune cells in co-culture with M21 melanoma cells): enhanced production of both cytokines specifically upon tumor cell contact
- enhancement of IL-2 and IFN-gamma production ([1]; CD8-positive immune cells in the absence of tumor cells): such effect was not detected in the absence of tumor cells
